For data set [1], the system named is Eubacterium sp. biurens 515. Nature of the data set: MIC against anaerobic bacteria (Table 3). The data set is classed as cell-based. Particulars: 10^6 CFU/ml, GAM medium, Gas Pack, 37° C., 18 hours. The procedure:
(§1) Inoculum size: 10^6 CFU/ml
(§2) ^Note 1 GAM medium(Nissui),
(§3) Gas Pack (BBL), 37° C., 18 hours

Data set [2] has as its system Fusobacterium necroform VPI 2891. As to the kind of experiment: MIC against anaerobic bacteria (Table 3). The data set is classed as cell-based. The note with it: VPI2891, 10^6 CFU/ml, GAM medium, Gas Pack, 37° C., 18 hours. The procedure: as §1, §2, §3
In data set [3] the test system is Mycoplasma garisepticum TB-3A. Nature of the data set: MIC against Mycoplasma (Table 3). The format is cell-based. Particulars: TB3A, 120 h, 10^6 CFU/ml, Hayflick medium, 37° C., 5 days.
Data set [4] concerns Acinetobacter calcoaceticus IFO 12552. The data set is classed as cell-based. The note with it: IFO12552, agar dilution, DY medium, pH unadjusted, approx. 10^6 CFU/ml, read-out: Minimum Inhibitory Conc. (MIC). As for the experimental part: (§4) (Note 1) Measurement was conducted by employing a medium consisting of DY
(§5) medium [Bacto Antibiotic Medium 3 (Difco Laboratories, USA)(17.5 g), Bact
(§6) yeast extract(Difco Laboratories, USA)(5.0 g) and distilled water(pH
(§7) unadjusted)(1000 ml)], using approximately 10^6 colony forming unit/m
(§8) of inoculum, by means of the agar dilution method.
For orientation: In agar dilution, organisms are placed on agar that contains the substance at set levels.

A further data set concerns Aeromonas caviae NCW. The format is cell-based. The note with it: read-out: Minimum Inhibitory Conc. (MIC). As for the experimental part:
as §4, §5, §6, §7, §8

The test system of the next data set is Bacillus cereus FDA 5. The data set is classed as cell-based. Particulars: FDA5, agar dilution, DY medium, pH unadjusted, approx. 10^6 CFU/ml, read-out: Minimum Inhibitory Conc. (MIC). As for the experimental part: as §4, §5, §6, §7, §8
Data set [5] relates to Bacillus megaterium IFO 12108. The data set is classed as cell-based. The note with it: Priestia megaterium, IFO12108, read-out: Minimum Inhibitory Conc. (MIC). As for the experimental part: as §4, §5, §6, §7, §8
Data set [6] deals with Bacillus subtilis NIHJ PCI 219. The data set is classed as cell-based. Particulars: read-out: Minimum Inhibitory Conc. (MIC). The procedure: as §4, §5, §6, §7, §8
The subject of a further data set is Escherichia coli LD-2. The format is cell-based. Particulars: LD2, read-out: Minimum Inhibitory Conc. (MIC). As for the experimental part: as §4, §5, §6, §7, §8
Data set [7] concerns Escherichia coli NIHJ JC 2. The format is cell-based. Particulars: NIHJJC2, agar dilution, DY medium, pH unadjusted, approx. 10^6 CFU/ml, read-out: Minimum Inhibitory Conc. (MIC). As for the experimental part: as §4, §5, §6, §7, §8
In data set [8] the test system is Klebsiella pnemoniae IFO 3317. The data set is classed as cell-based. Particulars: IFO3317, agar dilution, DY medium, pH unadjusted, approx. 10^6 CFU/ml, read-out: Minimum Inhibitory Conc. (MIC). As for the experimental part: as §4, §5, §6, §7, §8
In data set [9] the test system is Micrococcus luteus IFO 12708. The data set is classed as cell-based. Particulars: IFO12708, read-out: Minimum Inhibitory Conc. (MIC). As for the experimental part: as §4, §5, §6, §7, §8
In data set [10] the test system is Proteus vulgaris IFO 3988. The format is cell-based. Particulars: IFO3988, agar dilution, DY medium, pH unadjusted, approx. 10^6 CFU/ml, read-out: Minimum Inhibitory Conc. (MIC). As for the experimental part: as §4, §5, §6, §7, §8
Data set [11] has as its system Pseudomonas aeruginosa IFO 3080. The data set is classed as cell-based. The note with it: IFO3080, agar dilution, DY medium, pH unadjusted, approx. 10^6 CFU/ml, read-out: Minimum Inhibitory Conc. (MIC). The procedure:
as §4, §5, §6, §7, §8

For data set [12], the system named is Salmonella typhimurium IFO 12529. The data set is classed as cell-based. The note with it: Salmonella enterica; agar dilution; DY medium, pH unadjusted; approx. 10^6 CFU/ml; read-out: Minimum Inhibitory Conc. (MIC). The procedure:
as §4, §5, §6, §7, §8

In data set [13] the test system is Staphylococcus aureus FDA 209P. The data set is classed as cell-based. Particulars: FDA209P, read-out: Minimum Inhibitory Conc. (MIC). The procedure:
as §4, §5, §6, §7, §8

The subject of data set [14] is Staphylococcus epidermidis IFO 3762. The data set is classed as cell-based. The note with it: IFO3762, agar dilution, DY medium, pH unadjusted, approx. 10^6 CFU/ml, read-out: Minimum Inhibitory Conc. (MIC). The procedure:
as §4, §5, §6, §7, §8

In data set [15] the test system is Streptococcus faecalis IFO 3989. The format is cell-based. Particulars: Enterococcus faecalis, IFO3989, read-out: Minimum Inhibitory Conc. (MIC). The procedure: as §4, §5, §6, §7, §8
Data set [16] relates to Staphylococcus aureus 308A-1. Nature of the data set: Therapeutic effect on infectious disease in mice (Table 5). The format is in vivo.
The nature of data set [17]: Acute toxicity in mice (Table 7). Particulars: mouse, in vivo.
The test system of data set [18] is Treponema hyodicenterie 78/A. As to the kind of experiment: MIC against Spirochaeta (Table 3). The note with it: 48 h.

These results are taken from patent publication US4971965A, “Antibiotics TAN-1057” (Takeda Chemical Industries, Ltd., priority 1988, dated 1990).

Values after ≈ are worked out from the molar mass of the structure shown.

`CN(C(=O)C[C@@H](N)CCCNC(=N)N)[C@H]1CNC(NC(N)=O)=NC1=O` [TAN-1057A]: the minimum inhibitory concentration (MIC) was 12.5 µg/mL (≈ 35.2 µM) in data set [1]; 3.13 µg/mL (≈ 8.81 µM) in [2]; 3.13 µg/mL (≈ 8.81 µM) in [3]; 50 µg/mL (≈ 141 µM) in data set [4]; 12.5 µg/mL (≈ 35.2 µM) in the data set on Aeromonas caviae NCW; 25 µg/mL (≈ 70.3 µM) in the data set with Bacillus cereus FDA 5. Besides, the MIC in data set [5] was 12.5 µg/mL (≈ 35.2 µM); in [6] it was 12.5 µg/mL (≈ 35.2 µM); with Escherichia coli LD-2, 12.5 µg/mL (≈ 35.2 µM); in [7] it was > 100 µg/mL; in [8] it was > 100 µg/mL; in [9] it was 3.13 µg/mL (≈ 8.81 µM). Further, the MIC in data set [10] is > 100 µg/mL; in [11] it was > 100 µg/mL; in [12], 100 µg/mL (≈ 281 µM); in data set [13] it was 6.25 µg/mL (≈ 17.6 µM); in data set [14], 0.78 µg/mL (≈ 2.19 µM); in data set [15] it was 12.5 µg/mL (≈ 35.2 µM). This compound also showed a minimum inhibitory concentration (MIC) in [18] of 100 µg/mL (≈ 281 µM). The ED50 is ~1 mg/kg in [16] (308A1, ip infection, Oral) and ~0.1 mg/kg in data set [16] (308A1, sc, ip infection, Subcutaneous). The median lethal dose (LD50) was > 400 mg/kg in data set [17] (Oral) and ~100 mg/kg in [17] (ip, Intraperitoneal).

As usually defined, the MIC is the lowest concentration found to suppress growth. By ED50 is commonly meant the dose that gives a 50% effect, or the effect in half of the subjects. Lower therefore signals greater potency. As a reminder, the LD50 is the dose expected to kill half of the subjects tested. The low end stands for a more toxic substance, the high end for a less toxic substance.
